US4410513A, “Synthetic peptides having pituitary growth hormone releasing activity” (Beckman Instruments, Inc., priority 1981, dated 1983)
Non-standard residues stand in square brackets, D forms with d. Residues, ends and D or L forms follow the SMILES beside them.

What was measured:
[1] = tested on: pituitaries; test: In vitro growth hormone release study (incubated rat pituitaries, GH by RIA); type: cell-based
Method: Female rats at the CD-1 strain were housed in a constant temperature room at 24° C. with 14 hours light and 10 hours darkness. The rats were fed Purina brand rat chow ab libitum. All studies were started between 0800 and 1000 hours.
Pituitaries were removed from 20 day old female rats. In each polytetrafluoroethylene beaker (10 ml) was incubated two pituitaries at 36° C. in 1 ml of lactated Ringer's solution in a Dubnoff Shaker (90 cycles/min.). All medium in each beaker was removed each hour (e.g., P1, P2, I3, I4, I5) and then fresh medium was added back to each beaker. Each medium removed was assayed for GH, in duplicate, by a standard radioimmunoassay (RIA).
The growth hormone agonist of Example 1 was not added to the incubation mediums employed during the first hour of the incubation period (P1) or to the incubation mediums employed during the second hour of the incubation period (P2). The growth hormone agonist of Example 1 was dissolved in dimethylsulfoxide (DMSO; 10:1, agonist:DMSO), added to each incubation medium employed during the third hour of the incubation period (I3), to each medium employed during the fourth hour of the incubation period (I4) and to each medium employed during the fifth hour of the incubation period (I5). The release of growth hormone was recorded as ΔGH and calculated by subtracting the amount of GH released at P2 from that released at I3, I4, and I5. The agonist activity was determined from the release at I3, I4, and I5.
The procedure set forth in Example 11 with one modification was employed in an in vitro growth hormone release study of the peptide of Example 6 and the results therefrom are set forth in Table XI. The sole modification was the deletion of I5 from the procedure of Example 11.
The procedure set forth in Example 11 with one modification was employed in an in vitro growth hormone release study of the peptide of Example 7 and the results therefrom are set forth in Table XII. The sole modification was the deletion of I5 from the procedure of Example 11.

[2] = tested on: growth hormone release; test: In vivo growth hormone release study (serum GH by RIA about 15 minutes after intraperitoneal injection); set-up: species or system rat; details: 21 day old female rats, serum about 15 minutes after injection, mean of 8 ± SEM, control 4 ± 1
Method: Female rats of the CD-1 strain were housed in a constant temperature room at 24° C. with 14 hours light and 10 hours darkness. The rats were fed Purina brand rat chow ab libitum. All studies were started between 0800 and 1000 hours.
Each female rat (21 days old; eight rats per dosage level shown in Table XVI) was intraperitoneally injected with a desired dosage of the peptide of Example 1. Approximately 15 minutes after injection, the rat was guillotined. A blood sample was collected from the guillotined rat. The blood sample was centrifuged and a serum sample was collected therefrom. Each serum sample was assayed for GH, in duplicate, by a standard radioimmunoassay (RIA).

[3] = dosage 1 ng/ml incubation medium, mean of 9 assays (I3, I4, I5 minus P2) ± SEM
[4] = dosage 3 ng/ml incubation medium, mean of 9 assays (I3, I4, I5 minus P2) ± SEM
[5] = dosage 10 ng/ml incubation medium, mean of 9 assays (I3, I4, I5 minus P2) ± SEM
[6] = dosage 30 ng/ml incubation medium, mean of 9 assays (I3, I4, I5 minus P2) ± SEM
[7] = dosage 100 ng/ml incubation medium, mean of 9 assays (I3, I4, I5 minus P2) ± SEM
[8] = dosage 1,000 ng/ml incubation medium, mean of 9 assays (I3, I4, I5 minus P2) ± SEM

## C[C@H](NC(=O)[C@@H](Cc1c[nH]c2ccccc12)NC(=O)[C@@H](N)Cc1ccc(O)cc1)C(=O)N[C@@H](Cc1c[nH]c2ccccc12)C(=O)N[C@H](Cc1c[nH]cn1)C(N)=O [Example 2, H2 -Tyr-D-Trp-Ala-Trp-D-His-NH2] (H-Y[dW]AW[dH]-NH2)
[1]; [3]
  ΔGH: -179 ng/mL
[1]; [4]
  ΔGH: -192 ng/mL
[1]; [5]
  ΔGH: -802 ng/mL
[1]; [6]
  ΔGH: 611 ng/mL

## C[C@H](NC(=O)[C@@H](Cc1c[nH]c2ccccc12)NC(=O)[C@@H](N)Cc1c[nH]cn1)C(=O)N[C@@H](Cc1c[nH]c2ccccc12)C(=O)N[C@H](Cc1ccc(O)cc1)C(N)=O [Example 3, H2 -His-D-Trp-Ala-Trp-D-Tyr-NH2] (H-H[dW]AW[dY]-NH2)
[1]; [3]
  ΔGH: -126 ng/mL
[1]; [5]
  ΔGH: -99 ng/mL
[1]; [7]
  ΔGH: -238 ng/mL
[1]; [8]
  ΔGH: 2598 ng/mL

## C[C@H](NC(=O)[C@@H](Cc1c[nH]c2ccccc12)NC(=O)[C@@H](N)Cc1c[nH]cn1)C(=O)N[C@@H](Cc1c[nH]c2ccccc12)C(=O)N[C@H](Cc1c[nH]cn1)C(N)=O [Example 4, H2 -His-D-Trp-Ala-Trp-D-His-NH2] (H-H[dW]AW[dH]-NH2)
[1]; [3]
  ΔGH: -166 ng/mL
[1]; [5]
  ΔGH: -369 ng/mL
[1]; [7]
  ΔGH: 43 ng/mL
[1]; [8]
  ΔGH: 1501 ng/mL

## C[C@H](NC(=O)[C@@H](Cc1c[nH]c2ccccc12)NC(=O)[C@@H](N)Cc1c[nH]cn1)C(=O)N[C@@H](Cc1c[nH]c2ccccc12)C(=O)N[C@H](Cc1ccccc1)C(N)=O [Example 1, H2 -His-D-Trp-Ala-Trp-D-Phe-NH2] (H-H[dW]AW[dF]-NH2)
[2]; dosage 0.1 (μg/ml serum)
  ΔGH: 1 ± 1 ng/mL
[2]; dosage 1.0 (μg/ml serum)
  ΔGH: 2 ± 2 ng/mL
[2]; dosage 10.0 (μg/ml serum)
  ΔGH: 2 ± 1 ng/mL
[2]; dosage 100.0 (μg/ml serum)
  ΔGH: 82 ± 18 ng/mL
[1]; [3]
  ΔGH: 206 ng/mL
[1]; [4]
  ΔGH: 288 ng/mL
[1]; [5]
  ΔGH: 2,005 ng/ml
[1]; [6]
  ΔGH: 3,046 ng/ml

## C[C@@H](NC(=O)[C@@H](Cc1c[nH]c2ccccc12)NC(=O)[C@@H](N)Cc1ccc(O)cc1)C(=O)N[C@@H](Cc1c[nH]c2ccccc12)C(=O)N[C@H](Cc1ccccc1)C(N)=O [Example 6, H2 -Tyr-D-Trp-D-Ala-Trp-D-Phe-NH2] (H-Y[dW][dA]W[dF]-NH2)
[1]; dosage 300 ng/ml incubation medium, I5 deleted, mean of 6 assays (I3, I4 minus P2) ± SEM
  ΔGH: 648 ± 210 ng/mL
[1]; dosage 3,000 ng/ml incubation medium, I5 deleted, mean of 6 assays (I3, I4 minus P2) ± SEM
  ΔGH: 435 ± 143 ng/mL
[1]; dosage 30,000 ng/ml incubation medium, I5 deleted, mean of 6 assays (I3, I4 minus P2) ± SEM
  ΔGH: 1136 ± 190 ng/mL

## CC(=O)N[C@@H](Cc1ccc(O)cc1)C(=O)N[C@H](Cc1c[nH]c2ccccc12)C(=O)N[C@@H](C)C(=O)N[C@@H](Cc1c[nH]c2ccccc12)C(=O)N[C@H](Cc1ccccc1)C(N)=O [Example 9, CH3 CO-Tyr-D-Trp-Ala-Trp-D-Phe-NH2] (Ac-Y[dW]AW[dF]-NH2)
[1]; [5]
  ΔGH: -297 ± 79 ng/mL
[1]; [6]
  ΔGH: -118 ± 97 ng/mL
[1]; dosage 300 ng/ml incubation medium, mean of 9 assays (I3, I4, I5 minus P2) ± SEM
  ΔGH: 5 ± 29 ng/mL
[1]; dosage 3,000 ng/ml incubation medium, mean of 9 assays (I3, I4, I5 minus P2) ± SEM
  ΔGH: 1594 ± 385 ng/mL
[1]; dosage 30,000 ng/ml incubation medium, mean of 9 assays (I3, I4, I5 minus P2) ± SEM
  ΔGH: 1607 ± 250 ng/mL
